Test results published in publication PMC12326976 (Antimicrobial Agents and Chemotherapy, 2025).
Peptide text beside a SMILES is read from it.

Key:
rhinovirus A1 = format: cell-based
H1N1 virus [1] = assay: Plaque reduction assay, H1N1 in MDCK cells; format: cell-based, influenza A/Hong Kong/415742/2009 (H1N1); conditions: H30 in 20% PBS compared to PBS, plaque assay, Fig. S1
Procedure: The antiviral activity of peptides was measured by plaque reduction assay. Briefly, peptides were dissolved in PBS or 20% PBS. Peptides (0.2-25.0 µg mL^−1) were premixed with H1N1 virus at room temperature. After 30 min of incubation, the peptide-virus mixture was transferred to MDCK cells for infection at 37°C. At 1 hpi, infectious media were removed, and then 1% low melting agar was added to cells. Cells were fixed using 4% formalin at 2–3 dpi. […] (0.1%) was added to cells for cell staining to count viral plaques.

H1N1 virus [2] = format: cell-based, influenza H1N1 virus

| Compound | antiviral activity against rhinovirus A1 in low salt (rhinovirus A1) | antiviral activity against H1N1 in low salt (H1N1 virus [1]) | H1N1 viral release, supernatant virus at 8 hpi (H1N1 virus [2]) |
| --- | --- | --- | --- |
| CC[C@H](C)[C@H](NC(=O)[C@H](C)NC(=O)CN)C(=O)N[C@@H](CS)C(=O)N[C@@H](Cc1c[nH]cn1)C(=O)N1CCC[C@H]1C(=O)N[C@H](C(=O)N[C@@H](Cc1ccccc1)C(=O)N[C@@H](CS)C(=O)N1CCC[C@H]1C(=O)N[C@@H](CCCNC(=N)N)C(=O)N[C@@H](CCCNC(=N)N)C(=O)N[C@@H](Cc1ccc(O)cc1)C(=O)N[C@@H](CCCCN)C(=O)N[C@@H](CCC(N)=O)C(=O)N[C@H](C(=O)NCC(=O)N[C@H](C(=O)N[C@@H](CS)C(=O)NCC(=O)N[C@@H](CC(C)C)C(=O)N1CCC[C@H]1C(=O)NCC(=O)N[C@H](C(=O)N[C@@H](CCCCN)C(=O)N[C@@H](CS)C(=O)N[C@@H](CS)C(=O)N[C@@H](CCCCN)C(=O)N[C@@H](CCCCN)C(=O)N1CCC[C@H]1C(=O)O)[C@@H](C)O)[C@@H](C)O)[C@@H](C)CC)C(C)C [H30] (H-GAICHPVFCPRRYKQIGTCGLPGTKCCKKP-OH; N-terminus and C-terminus assumed) | could show more effective antiviral activity in low salt conditions | could show antiviral activity in the low salt condition of 20% phosphate-buffered saline | – |
| CC(=O)N[C@H]1[C@H]([C@H](O)[C@H](O)CO)OC(C(=O)O)=C[C@@H]1N=C(N)N [zanamivir, reference compound] | – | – | significantly inhibited H1N1 viral release from cells |
